Like-named read-outs stand apart in the source and are kept apart here. Values belong to the molecule of their own block, whether it stands above or below them.
How the values were obtained:
[1] = test system: FFAR1 R183A and R258A mutants; assay: Ca2+ influx assay, FFAR1 point mutants in transfected HEK293T cells; type: cell-based
Protocol: (§1) FLAG-tagged FFAR1 was constructed using a two-step procedure. Initially, untagged FFAR1-pcDNA3.1 was amplified using the forward primer ([…]) and the reverse primer ([…]) to insert a FLAG epitope at the N terminus of the receptor. Following this, the polymerase chain reaction (PCR) product was purified and ligated into a pcDNA3.1 vector. Mutations were made using the QuikChange Site-Directed Mutagenesis Kit (Stratagene) and verified by sequencing.
(§2) For stable CHO cell lines, cells were seeded in black-walled clear-bottomed 96-well cell culture plates (Costar) and incubated overnight in 5% CO2 at 37°C. Otherwise, HEK293T cells were transiently transfected with expression plasmids using Trans-IT (Mirus) or Lipofectamine 2000, followed by plating in poly-D-lysine-coated black clear 96-well plates (BD Falcon) and incubated for 2 days. These cells were then incubated at 37°C for 1 h in HEPES-buffered Hank’s balanced salt solution (pH 7.4) containing 2.5 mM probenecid, 1% FBS, and 4 µM fluo-3 AM (Dojindo). Following this, the cells were washed four times with the solution without fluo-3 AM. Intracellular Ca^2+ concentrations were measured before and after adding samples using FLIPR (Molecular Devices). Assays were performed in the absence of bovine serum albumin (BSA). EC50, 95% confidence interval and Emax values for each curve were calculated by data analysis using 4-parameter logistic equation in Prism 5 software (GraphPad Software).

[2] = test system: FFAR1 Y91A and N244A mutants; assay: as above; type: cell-based
Protocol: as §1, §2

[3] = test system: FFAR1 H137A and L186A mutants; assay: as above; type: cell-based; settings: for change of EC50 in mutants versus wild-type: range over fasiglifam and GW9508 and both mutants
Protocol: as §1, §2

N-STZ-1.5 rats = assay: Oral glucose tolerance test in diabetic N-STZ-1.5 rats; type: in vivo, rat
Protocol: Blood samples were collected from the tail vein before drug administration (pre), before glucose load (time 0), and 10, 30, 60, and 120 min after the glucose load. Plasma glucose and FFA levels were measured using Autoanalyzer 7080 (Hitachi, Japan), and insulin levels were measured using the Rat Insulin ELISA Kit (Morinaga, Japan). All procedures were conducted according to the Experimental Animal Care and Use Committee of Takeda Pharmaceutical Company Limited.

MIN6 cells [4] = assay: Insulin secretion assay in MIN6 cells; type: cell-based, mouse; settings: 16 mM glucose
Protocol: MIN6 cells were seeded at a density of 6 × 10^4 cells/well in 96-well plates (BD Falcon), and cells were cultured in the growth medium described above for 2 days before experiments. After discarding the medium, cells were preincubated for 2 h at 37°C with 200 µL of Krebs-Ringer bicarbonate–HEPES (KRBH) buffer (116 mmol/L NaCl, 4.7 mmol/L KCl, 1.17 mmol/L KH2PO4, 1.17 mmol/L MgSO4, 25 mmol/L NaHCO3, 2.52 mmol/L CaCl2, and 24 mmol/L HEPES) containing 0.2% BSA and 1 mmol/L glucose. After discarding the preincubation buffer, KRBH containing 0.2% BSA, 16 mmol/L glucose, and stimulators as shown was added and the plate was incubated for 2 h at 37°C. After incubation, supernatants from each well were collected and secreted insulin concentrations were measured using alphaLISA (PerkinElmer) according to the manufacturer’s instruction.

hFFAR1 [5] = molecular target: T1, hFFAR1 (Homo sapiens, UniProt O14842); assay: Ca2+ influx in HEK293T cells transiently transfected with varying amounts of hFFAR1 plasmid; type: cell-based; settings: 100 ng to 1 ng hFFAR1 plasmid, compared with γ-LA
T1 construct: expressed in transfected cells
T1 sequence (O14842 whole entry): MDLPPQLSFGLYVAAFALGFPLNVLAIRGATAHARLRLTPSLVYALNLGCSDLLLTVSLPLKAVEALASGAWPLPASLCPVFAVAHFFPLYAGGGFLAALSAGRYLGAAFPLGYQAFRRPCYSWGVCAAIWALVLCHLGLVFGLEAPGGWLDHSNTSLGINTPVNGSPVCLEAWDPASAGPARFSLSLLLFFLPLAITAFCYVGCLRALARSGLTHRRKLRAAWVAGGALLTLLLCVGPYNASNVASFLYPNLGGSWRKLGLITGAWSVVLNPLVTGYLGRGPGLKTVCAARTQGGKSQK
Protocol: as §2
Supplementary file pone.0076280.s002.tif: Figure S2 Relative efficacy of fasiglifam is affected by FFAR1/GPR40 expression levels in transient HEK293T cells. Relative Ca^2+ influx activities of fasiglifam and γ-linolenic acid (γ-LA) were measured in HEK293T cells transiently transfected with 100 ng (A), 30 ng (B), 10 ng (C), 3 ng (D), and 1 ng (E) of hFFAR1 expression plasmids. Error bars indicate s.e.m. […]

[6] = test system: FFAR1-knockout mouse islets; assay: Insulin secretion in FFAR1-knockout mouse islets; type: cell-based; settings: 16 mM glucose
hFFAR1 [7] = molecular target: T1, hFFAR1; assay: Ca2+ mobilization assay (FLIPR) in CHO cells stably expressing hFFAR1; type: cell-based; settings: for agonistic activity, Ca2+ influx: hFFAR1/CHO cells (clone #104)
Protocol: Cells were selected by culturing in nucleotide-free alpha-minimum essential medium (α-MEM; Invitrogen) supplemented with 10% dialyzed and heat-inactivated fetal bovine serum (FBS; Invitrogen), 100 IU/mL penicillin, and 100 µg/mL streptomycin (Invitrogen). […] The murine pancreatic β cell line MIN6 cells were kindly provided by Dr. Miyazaki. […] Cells were cultured in a humidified atmosphere containing 5% CO2/95% air at 37°C.
as §2, with “(BSA).” for “(BSA). EC50, 95% confidence interval and Emax values for each curve were calculated by data analysis using 4-parameter logistic equation in Prism 5 software (GraphPad Software).”

rat insulinoma cells = test system: rat insulinoma cells; set-up: method as in PMID 21752941; settings: prolonged exposure to fasiglifam alone; cited from earlier work
mFFAR1 = molecular target: T2, mFFAR1 (Mus musculus, UniProt Q76JU9); assay: Ca2+ mobilization assay (FLIPR) in CHO cells stably expressing mFFAR1; type: cell-based
T2 construct: expressed in transfected cells
T2 sequence (Q76JU9 whole entry): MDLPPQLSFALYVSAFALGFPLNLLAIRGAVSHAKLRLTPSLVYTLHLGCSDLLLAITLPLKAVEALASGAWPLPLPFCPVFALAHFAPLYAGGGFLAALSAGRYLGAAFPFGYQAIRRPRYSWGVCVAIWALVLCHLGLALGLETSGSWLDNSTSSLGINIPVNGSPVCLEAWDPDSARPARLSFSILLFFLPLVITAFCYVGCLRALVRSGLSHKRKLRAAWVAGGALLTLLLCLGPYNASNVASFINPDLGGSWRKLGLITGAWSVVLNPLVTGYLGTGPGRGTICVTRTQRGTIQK
Protocol: To establish CHO cells (dhfr−) stably expressing hFFAR1 or mFFAR1, CHO/dhfr− (ATCC catalog # CRL-9096) cells were transfected with hFFAR1-pAKKO-111H or mFFAR1-pAKKO-111H plasmid using Lipofectamine 2000 (Invitrogen). Cells were selected by culturing in nucleotide-free alpha-minimum essential medium (α-MEM; Invitrogen) supplemented with 10% dialyzed and heat-inactivated fetal bovine serum (FBS; Invitrogen), 100 IU/mL penicillin, and 100 µg/mL streptomycin (Invitrogen). HEK293T (ATCC catalog # CRL-11268) cells were cultured in Dulbecco’s modified Eagle’s medium (DMEM, Invitrogen) supplemented with 10% heat-inactivated FBS, 100 IU/mL penicillin, and 100 µg/mL streptomycin. The murine pancreatic β cell line MIN6 cells were kindly provided by Dr. Miyazaki. MIN6 cells were grown in DMEM containing 10% heat-inactivated FBS, 100 IU/mL penicillin, 100 µg/mL streptomycin, and 55 µmol/L 2-mercaptoethanol (Invitrogen). Cells were cultured in a humidified atmosphere containing 5% CO2/95% air at 37°C.
For stable CHO cell lines, cells were seeded in black-walled clear-bottomed 96-well cell culture plates (Costar) and incubated overnight in 5% CO2 at 37°C. […] Intracellular Ca^2+ concentrations were measured before and after adding samples using FLIPR (Molecular Devices). […]

wild-type mouse islets = assay: Insulin secretion in wild-type mouse islets; type: cell-based; settings: 16 mM glucose
MIN6 cells [8] = assay: Caspase 3/7 activity in MIN6 cells (lipotoxicity); settings: 72-h exposure, palmitic acid 0.25–1 mM
Protocol: (§3) Caspase 3/7 activity in MIN6 cells was measured according to a previously described method (8). In brief, MIN6 cells were seeded at a density of 2 × 10^4 cells/well in a 96-well black clear plate (CORNING) and cultured overnight. After discarding the medium, 1% BSA, palmitic acid–BSA conjugate (0.25, 0.5, and 1 mM) or γ-LA–BSA conjugate (0.25, 0.5, and 1 mM) in combination with 0.1% DMSO or fasiglifam (0.1, 1, and 10 µM) were added to the plates and cultured for 72 h. After incubation, caspase 3/7 activity was measured using the Apo-one Homogeneous Caspase 3/7 assay (Promega) according to the manufacturers’ instructions. Fluorescent intensity was measured at excitation and emission wavelengths of 485 nm and 535 nm, respectively (Wallac 1420 ARVO SX Multilabel Counter; PerkinElmer).

MIN6 cells [9] = settings: mouse, 72 h, 1 mM
Protocol: as §3

change of EC50 in mutants versus wild-type [3]: 7.7- to 130 fold
Structure (SMILES): O=C(O)CCc1ccc(NCc2cccc(Oc3ccccc3)c2)cc1 [GW9508]
Ca2+ influx response of mutants [1]: almost completely unresponsive
effect of mutations on potency [2]: more drastic

Structure (SMILES): Cc1cnc(C(=O)O)c[n+]1[O-] [acipimox]
plasma FFA levels (N-STZ-1.5 rats; acipimox 30 mg/kg oral, N-STZ-1.5 rats, OGTT): rapid decrease
glucose tolerance (N-STZ-1.5 rats; acipimox alone 30 mg/kg, OGTT, N-STZ-1.5 rats): improved glucose tolerance
plasma FFA level after reduction with acipimox (N-STZ-1.5 rats; diabetic rats, acipimox): approximately 0.2 mEq/L

Structure (SMILES): Cc1cc(OCCCS(C)(=O)=O)cc(C)c1-c1cccc(COc2ccc3c(c2)OC[C@H]3CC(=O)O)c1.Cc1cc(OCCCS(C)(=O)=O)cc(C)c1-c1cccc(COc2ccc3c(c2)OC[C@H]3CC(=O)O)c1.O [fasiglifam, [(3S)-6-({2′,6′-dimethyl-4′-[3-(methylsulfonyl)propoxy]biphenyl-3-yl}methoxy)-2,3-dihydro-1-benzofuran-3-yl] acetic acid hemihydrate]
increase in the maximal response of fasiglifam (insulin secretion) by γ-LA (MIN6 cells [4]; γ-LA 100 µM): 1.5–2 fold
insulinotropic action in acipimox-treated rats (N-STZ-1.5 rats; fasiglifam 10 mg/kg + acipimox 30 mg/kg, OGTT): significantly suppressed
plasma insulin (insulinotropic effect) versus vehicle (N-STZ-1.5 rats; fasiglifam alone 10 mg/kg oral, at 0, 10, and 30 min of OGTT): significant insulinotropic effects
maximal response as amount of transfection plasmid decreased (hFFAR1 [5]): dramatically decreased
insulinotropic effect in FFAR1-knockout islets [6]: completely abolished
agonistic activity, Ca2+ influx (hFFAR1 [7]): higher potency than FFAs
effect of simultaneous γ-LA on fasiglifam Ca2+ activity (hFFAR1 [7]; hFFAR1/CHO clone #2, increasing doses of γ-LA): remarkable potentiation
effect on apoptosis (rat insulinoma cells): no effect on apoptosis
Emax, Ca2+ mobilization (mFFAR1): lower Emax than γ-LA
Ca2+ influx response of mutants [1]: almost unresponsive
effect of mutations on potency [2]: more drastic
change of EC50 in mutants versus wild-type [3]: 7.7- to 130 fold
effect of γ-LA on insulinotropic activity of fasiglifam (wild-type mouse islets): dramatic improvement

Structure (SMILES): CCC1=C(C)CN(C(=O)NCCc2ccc(S(=O)(=O)NC(=O)N[C@H]3CC[C@H](C)CC3)cc2)C1=O [glimepiride]
insulinotropic effect in FFAR1-knockout islets [6]: not affected

Structure (SMILES): CCCCCCCCCCCCCC(=O)O [myristic acid]
agonistic activity, Ca2+ influx (hFFAR1 [7]): partial activities

Structure (SMILES): CCCCCCCCCCCCCCCC(=O)O [palmitic acid]
caspase 3/7 activity (MIN6 cells [8]): increased caspase 3/7 activity in a dose-dependent manner
agonistic activity, Ca2+ influx (hFFAR1 [7]): partial activities

agonistic activity, Ca2+ influx (hFFAR1 [7]): full agonistic activity
EC50 (hFFAR1 [7]; hFFAR1/CHO clone #2, without fasiglifam, read-out: EC50 of γ-LA response (Ca2+ influx)): 5.39 µM
Structure (SMILES): CCCCC/C=C\C/C=C\C/C=C\CCCCC(=O)O [γ-LA, γ-linolenic acid]
insulin secretion, compound alone (MIN6 cells [4]; 0.2% BSA): could not significantly potentiate insulin secretion
Ca2+ influx response of mutants [1]: relatively less affected
activity in mutants versus wild-type [3]: remained almost unchanged
caspase 3/7 activity (MIN6 cells [9]): significant enhancements of caspase 3/7 activity
